We go through 8 compounds from PMC9822168, “The Use of Flavylium Salts as Dynamic Inhibitor Moieties for Human Cb5R” (Molecules, 2022).

One data set has as its target T1, Cb5R from microsomes (Rattus norvegicus, UniProt P20070).
T1 construct: testing the action of compounds 1 and 5 against the Cb5R present in rat liver microsomes; from tissue; host or cells: rat liver microsomes
T1 sequence (P20070 1-301): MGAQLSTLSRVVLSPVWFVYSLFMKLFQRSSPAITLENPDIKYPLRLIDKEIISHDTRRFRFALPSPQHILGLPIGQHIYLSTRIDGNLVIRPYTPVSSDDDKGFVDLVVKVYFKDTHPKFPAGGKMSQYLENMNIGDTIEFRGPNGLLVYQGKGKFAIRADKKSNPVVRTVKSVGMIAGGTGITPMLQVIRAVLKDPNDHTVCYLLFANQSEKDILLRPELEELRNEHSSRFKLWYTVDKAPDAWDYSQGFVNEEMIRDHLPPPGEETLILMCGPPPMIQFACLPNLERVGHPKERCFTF
In words: NADH-dependent superoxide anion production (NADH: NBT reductase activity sensitive to SOD and CAT) of microsomes. In kind it is biochemical. The conditions noted are these: microsomes 5.2 µg/mL, without compound 2.3 ± 0.1; for Superoxide anion production of microsomes in presence of compound, NE form: non-equilibrated. The method, then: Finally, we measured the effect of compounds 1 and 5 on the previously described NADH-dependent superoxide anion production of the Cb5R by quantifying the inhibitory effect of the compounds on the NADH: nitro blue tetrazolium (NBT) reductase activity of Cb5R from microsomes sensitive to superoxide dismutase (SOD) and catalase (CAT) (Figure 6c). The NADH: NBT reductase activity of Cb5R measured with microsomes (5.2 µg/mL) was 4.4 ± 0.1 µM/min.

Data set [1] in a line: UV-vis spectra of species interconversion in phosphate buffer pH 7.0. It is filed as physicochemical. The conditions noted are these: 24 h in phosphate buffer pH 7.0, relative to value after 2 min incubation. The method, then: The stock solutions of the flavylium compounds were prepared in dimethyl sulfoxide (DMSO): H2O (99:1) containing 0.1M of HCl. To estimate the predominant species of the used compounds (Figure 1), 10 µL of stock solution of each compound was added to potassium phosphate buffer at pH 7.0. The UV-vis spectra were recorded immediately (Figure S1, black lines) and after 2 min (red lines). […] The spectral signatures, i.e., the observation of absorption bands in the visible and UV-vis regions, pointed out the existence of the quinoidal base and colorless hemiketal/chalcone species mixtures under non-equilibrated conditions.
Stock solutions of compounds at acid pH values (non-equilibrated (NE) in the media) and by incubation in phosphate buffer at pH 7.0 for 24 h were prepared, and their UV-vis was measured in phosphate buffer pH 7.0. As expected, the mole fraction of the quinoidal base of compounds 1 and 5 partially disappeared, leading to the formation of the respective trans-chalcone species after a 24 h incubation in phosphate buffer at pH 7.0 (Supplementary Figure S2). We monitored the spectra of compounds 1 and 5 (black and grey line, respectively) after immediate addition into phosphate buffer pH 7.0 (continuous line) or after incubation in this buffer for 24 h (dotted line). […]

The target in data set [2] is T2, Cb5R in rat liver microsomes (Rattus norvegicus, UniProt P20070).
T2 construct: testing the action of compounds 1 and 5 against the Cb5R present in rat liver microsomes; from tissue; host or cells: rat liver microsomes
T2 sequence (P20070 1-301): T1 sequence (P20070 1-301)
In words: NADH: Cb5 reductase activity of rat liver microsomes. In kind it is biochemical. Particulars: 40 µM compound, Cb5 5 μM, NADH 150 μM. The method, then:
We measured the inhibition of the NADH: Cb5 reductase activity with a fixed concentration of the compounds (Figure 6b) and compared the values with those of the NADH: ferricyanide reductase activity in microsomes (Figure 6a).
(§1) Livers were obtained from add livitum rats. Microsomes were prepared as previously performed, with slight differences. […] Buffer (3 mL) was used per gram of liver tissue. After homogenization, the lysate was centrifuged at 960× g for 10 min at 4 °C. The supernatant was collected and centrifuged at 9800× g for 20 min at 4 °C. Finally, the supernatant was centrifuged at 53170× g for 60 min at 4 °C. The microsomal sediment was resuspended in the same buffer and frizzed at −80 °C until use.
For orientation: Liver microsomes are vesicles of endoplasmic reticulum, rich in cytochrome P450 enzymes.

Data set [3] has as its target T2, Cb5R in rat liver microsomes. In words: NADH: ferricyanide reductase activity in rat liver microsomes. In kind it is biochemical. The conditions noted are these: for inhibition at 40 µM: 40 µM compound; for IC50: microsomes 5.6 µg/mL of protein; for Maximum inhibition of NADH: ferricyanide reductase activity in microsomes, E form / Maximum inhibition of NADH: ferricyanide reductase activity in microsomes, NE form: up to 100 µM compound. The method, then:
To further assess the biological relevance of the tested compounds as inhibitors of the Cb5R, we measure the inhibition dependence of the NADH: ferricyanide reductase activity in rat liver microsomes (Figure 6a). All tested compounds follow a dose-dependent effect on this activity, although the maximum inhibition achieved for them was not the same as measured with the purified recombinant enzyme.
as §1

For data set [4], the target named is NADH: ferricytochrome b5 reductase. Also on record: method as in PMID 22542668. Particulars: cited from earlier work; for IC50: read-out: IC50 against NADH: ferricytochrome b5 reductase.
[5] abbreviates: equilibrated, read-out: Inhibition of NADH: Cb5 reductase activity of microsomes, E form.
The mark [6] stands for this setting: non-equilibrated, read-out: Inhibition of NADH: Cb5 reductase activity of microsomes, NE form.
Setting [7] is: equilibrated, read-out: Inhibition of NADH: ferricyanide reductase activity of microsomes, E form.
Where [8] appears, read: non-equilibrated, read-out: Inhibition of NADH: ferricyanide reductase activity of microsomes, NE form.
The mark [9] stands for this setting: equilibrated, read-out: IC50, NADH: ferricyanide reductase activity of microsomes, E form.

A word on the inhibition: it is the percentage by which the read-out fell short of the control. As usually defined, the IC50 is the midpoint of a concentration-inhibition curve.

Structures are written as SMILES. Where two headings read alike, the source gives them in different places.

Turning to `Oc1ccc(-c2ccc3ccc(O)cc3[o+]2)cc1` [Compound 1], the “Superoxide anion production of microsomes in presence of compound, E form” value at Cb5R from microsomes (equilibrated) turned out to be 1.4 ± 0.1 µM/min. For the same compound, the “Superoxide anion production of microsomes in presence of compound, NE form” value at Cb5R from microsomes was determined as 1.7 ± 0.1 µM/min. Also, the “Quinoidal base disappeared, forming the trans-chalcone” value in data set [1] is “ca. 40%”. Also, the inhibition at 40 µM in data set [2] (setting [5]) was 58.8 ± 1.5%; in data set [2] (setting [6]), 25 ± 5.3%; in data set [3] (setting [7]), 63.4 ± 3.6%; in data set [3] (setting [8]), 4.6 ± 4%. In addition, the IC50 in data set [3] (setting [9]) stood at 18 ± 3.8 µM. For the same compound, the “Maximum inhibition of NADH: ferricyanide reductase activity in microsomes, E form” value in data set [3] (equilibrated) stood at 85 ±2%. Further, the “Maximum inhibition of NADH: ferricyanide reductase activity in microsomes, NE form” value in data set [3] (non-equilibrated) came to 11 ±7%.
In the case of `O=c1cc(-c2ccc(O)c(O)c2)oc2cc(O)cc(O)c12` [luteolin], in data set [4], the IC50 is 0.11 µM.
Consider `O=C1C[C@@H](c2ccc(O)cc2)Oc2cc(O)cc(O)c21` [Naringenin], for which the “Inhibition of Cb5R in vitro” value in data set [4] (in vitro studies) is on record as “did not inhibit”.
For `Oc1cc(O)c2c(c1)O[C@H](c1ccc(O)c(O)c1)[C@@H](O)C2` [catechin], the IC50 in data set [4] is 4.5 µM.
As to `Oc1ccc2ccc(-c3ccc(O)c(O)c3)[o+]c2c1` [Compound 5], the “Superoxide anion production of microsomes in presence of compound, NE form” value on Cb5R from microsomes is recorded as 1.4 ± 0.1 µM/min. The “Quinoidal base disappeared, forming the trans-chalcone” value in data set [1] is “ca. 40%”. Besides, the inhibition at 40 µM in data set [2] (setting [5]) is 80.6 ± 0.8%; in data set [2] (setting [6]), 65.6 ± 2.9%; in data set [3] (setting [7]) it was 81.8 ± 2.3%; in data set [3] (setting [8]), 71 ± 4.7%. Moreover, the IC50 in data set [3] (setting [9]) came out at 3.3 ± 0.4 µM; in data set [3] (non-equilibrated, read-out: IC50, NADH: ferricyanide reductase activity of microsomes, NE form), 8 ± 2.2 µM. Also, the “Maximum inhibition of NADH: ferricyanide reductase activity in microsomes, E form” value in data set [3] (equilibrated) was 81 ± 2%. The “Maximum inhibition of NADH: ferricyanide reductase activity in microsomes, NE form” value in data set [3] (non-equilibrated) is listed as 77 ± 2%.
Turning to `O=c1cc(-c2ccc(O)cc2)oc2cc(O)cc(O)c12` [apigenin], in data set [4], the IC50 was 36 µM.
For `Oc1cc(O)c2c(c1)O[C@H](c1ccc(O)c(O)c1)[C@H](O)C2` [epicatechin], in data set [4], the IC50 is 3.2 µM.
Consider `O=c1c(O)c(-c2ccc(O)c(O)c2)oc2cc(O)cc(O)c12` [quercetin], for which, in data set [4], the IC50 was 1.1 µM.
